Values quoted from earlier work as cited in patent publication US20060177860A1, “Genetic markers in the HLA-DQBI gene associated with an adverse hematological response to drugs” (priority 2005, published 2006).

Details: as taught by U.S. Pat. No. 5,312,819

O=C1O[C@H]([C@@H](O)CO)C(O)=C1O [L-ascorbic acid]
effect of radical scavenger on formation of free radicals of clozapine: reduces the formation of free radicals of clozapine
